According to patent publication US10975049B2, “Nicotinyl alcohol ether derivative, preparation method therefor, and pharmaceutical composition and uses thereof” (Institute of Materia Medica, Chinese Academy of Medical …, priority 2016, dated 2021):
Where a name gives a salt, the structure may show the parent alone. Values belong to the compound of their own block, whether it stands above or below them.

Columns and labels:
[1] = test system: high metastatic melanoma B16F10; assay: Subcutaneous xenograft model of high metastatic melanoma B16F10; assay type: in vivo, C57BL/6 or Bablc mice; conditions: for T/C % (relative tumor proliferation rate) / TGI % (tumor growth inhibition rate): tumor weight
Protocol: (§1) The method in subcutaneous xenograft tumor was as follows. The cultured specific tumor cells were digested and collected by centrifugation, and washed with sterile physiological saline for two times and then counted. The cell concentration was adjusted to 5×10^6/ml by physiological saline, and 0.2 ml of cell suspension was inoculated to the right armpit of C57BL/6 or Bablc mice. After inoculation, the animals were randomly divided into two groups in next day. Each group had 6-7 mice. After weighing, the animals were dosed once each day to monitor tumor size. When the tumor size reached to a certain size, the mice was weighed and blood was collected from mice orbit and then the mice were killed by removing the neck. The tumor tissue, thymus tissue and spleen tissue were collected and weighed respectively. Finally, the tumor growth inhibition rate was calculated, and the tumor growth inhibition rate was used to evaluate the level of anti-tumor effect.
(§2) In the study of the mechanism of the above models, the method of flow cytometry was adopted in measuring the total cell proportion of T cells of various types. The specific steps were as follows. The samples were treated at first. For blood tissue, the orbital blood was taken. The red cell lysate was used to remove the red blood cells, and then the PBS buffer was used for wash. After being washed, the cells were collected. For the tumor and spleen, the tissues were grinded with a homogenizer, and then diluted with PBS buffer, then filtered by 300 meshes of screen. After the number of cells was counted for each sample, 1×10^6 cells were added into EP tube and stained for flow antibody. After incubation for 1 h on ice, each sample was washed 2 times with PBS buffer. The cell population was analyzed by VERSE flow instrument of BD Company. The total number of cells in tumor tissue was 1×10^5 and the total number of cells in blood and spleen tissues was 1×10^4. The ratio of T cells to total number of cells was analyzed after flow cytometry.

[2] = test system: high metastatic melanoma B16F10; assay: Lung metastasis model of high metastatic melanoma B16F10; assay type: in vivo, C57BL/6 mice; conditions: for Tumor number X ± SD: lung; for T/C % (relative tumor proliferation rate) / TGI % (tumor growth inhibition rate): tumor number
Protocol: The method in B16F10 lung metastasis model was as follows. The cultured B16F10 tumor cells were digested and centrifuged and washed for two times with sterile physiological saline and then counted. And the cell concentration was adjusted to 2.5×10^6/ml by physiological saline. 0.2 ml of cells were injected into the C57BL/6 mice through the tail vein, and the tumor cells will gather in the lung of the mice. After inoculation, the animals were randomly divided into two groups in next day. Each group had 6-7 mice. After weighing, the animals were dosed once each day. After 3 weeks, the mice were weighed and killed, the lung tissue was collected and weighed, and the number of lung tumors was counted after being fixed by the Bouin's Fluid. Finally, the tumor growth inhibition rate was calculated, and the tumor growth inhibition rate was used to evaluate the level of anti-tumor effect.
as §2

[3] = target: interaction between PD-1 and PD-L1 (Homo sapiens (Human), UniProt Q9NZQ7); assay: Cisbio PD-1/PD-L1 binding assay kit (HTRF); conditions: molecular level, read-out: IC50 (M), inhibitory activity on the interaction between PD-1 and PD-L1
interaction between PD-1 and PD-L1, sequence (Q9NZQ7 19-238): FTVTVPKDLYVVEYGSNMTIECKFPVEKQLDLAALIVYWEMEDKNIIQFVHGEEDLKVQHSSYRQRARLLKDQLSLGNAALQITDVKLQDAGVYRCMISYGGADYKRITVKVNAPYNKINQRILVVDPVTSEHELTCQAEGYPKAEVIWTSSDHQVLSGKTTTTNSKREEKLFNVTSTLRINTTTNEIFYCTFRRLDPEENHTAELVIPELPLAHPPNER
Source text: 1. In vitro activity evaluation: Cisbio PD-1/PD-L1 binding assay kit was applied for the detection method of in vitro enzymology level.
Screening Principles and Methods of PD-1/PD-L1 Small Molecule Inhibitors
1) Principle: PD-1 protein is with HIS tag, and PD-1 ligand PD-L1 is with hFc tag. Eu labeled anti-hFc antibody and XL665 labeled anti-HIS antibody are combined with the above two label proteins respectively. After laser excitation, energy can be transferred from donor Eu to receptor XL665, allowing XL665 to glow.
2) Experimental method: The specific method can be referred to Cisbio's PD-1/PD-L1 Kit (item 64CUS000C-2). Reagents should be dispensed in the following order. For 384-well white ELISA plate, 2 μl of diluent or target compound diluted with diluent was added to each well, and then 4 μl of PD-1 protein and 4 μl of PD-L1 protein were added per well, incubated for 15 min at room temperature; and 10 μl of a mixture of anti-Tag1-Eu3^+ and anti-Tag2-XL665 was added per well and incubated for 1 h to 4 h at room temperature and the fluorescence signals at 665 nm and 620 nm were measured with an Envison instrument. HTRF rate=(665 nm/620 nm)*10^4. 8-10 concentrations were detected for each compound and IC50 was calculated by Graphpad software.

mouse breast cancer EMT6 = assay: Subcutaneous xenograft model of mouse breast cancer EMT6; assay type: in vivo, C57BL/6 or Bablc mice
Protocol: as §1

mouse colon cancer MC38 = assay: Subcutaneous xenograft model of mouse colon cancer MC38; assay type: in vivo, C57BL/6 or Bablc mice; conditions: 60 mg/kg
Protocol: as §1

[4] = spleen, CTX group, dose not given

Compound: CCOC(=O)[C@H](CO)NCc1cc(Cl)c(OCc2cccc(-c3ccccc3)c2Br)cc1OCc1cccnc1.Cl.Cl [Example 5, (S)-Ethyl N-(4-(2-bromo-3-phenylbenzyloxy)-5-chloro-2-(pyridin-3-yl-methyleneoxy)benzyl) serinate dihydrochloride]
Tumorweight(g) X ± SD ([1]; 15 mg/kg): 2.69 ± 1.99 g | Body weight (g) Mean ± SD Begin ([1]; 15 mg/kg): 20.4 ± 1.0 g | Body weight (g) Mean ± SD End ([1]; 15 mg/kg): 24.2 ± 2.2 g | T/C % (relative tumor proliferation rate) ([1]; 15 mg/kg): 104.26% | TGI % (tumor growth inhibition rate) ([1]; 15 mg/kg): −4.26% | Tumorweight(g) X ± SD ([1]; 45 mg/kg): 1.41 ± 0.60 g | Body weight (g) Mean ± SD Begin ([1]; 45 mg/kg): 20.3 ± 1.0 g | Body weight (g) Mean ± SD End ([1]; 45 mg/kg): 22.6 ± 1.4 g | T/C % (relative tumor proliferation rate) ([1]; 45 mg/kg): 54.73% | TGI % (tumor growth inhibition rate) ([1]; 45 mg/kg): 45.27% | proportion of tumor-infiltrating lymphocytes ([1]; result in words): increase | CD3+ (%) tumor-infiltrating T lymphocytes ([1]; 45 mg): 10.1 ± 4.5% | CD4+ (%) tumor-infiltrating T lymphocytes ([1]; 45 mg): 9.0 ± 4.7% | CD8+ (%) tumor-infiltrating T lymphocytes ([1]; 45 mg): 5.2 ± 2.8% | Body weight (g) Mean ± SD Begin ([2]; 15 mg/kg): 20.6 ± 0.7 g | Body weight (g) Mean ± SD End ([2]; 15 mg/kg): 20.2 ± 1.5 g | Tumor number X ± SD ([2]; 15 mg/kg): 18 ± 18 | T/C % (relative tumor proliferation rate) ([2]; 15 mg/kg): 85.7% | TGI % (tumor growth inhibition rate) ([2]; 15 mg/kg): 14.3% | Body weight (g) Mean ± SD Begin ([2]; 45 mg/kg): 20.5 ± 0.6 g | Body weight (g) Mean ± SD End ([2]; 45 mg/kg): 21.2 ± 0.7 g | Tumor number X ± SD ([2]; 45 mg/kg): 16 ± 7 | T/C % (relative tumor proliferation rate) ([2]; 45 mg/kg): 76.2% | TGI % (tumor growth inhibition rate) ([2]; 45 mg/kg): 23.8% | CD3+ percentage of T lymphocyte in mouse blood ([2]; 15 mg): 22.7 ± 4.8% | CD4+ percentage of T lymphocyte in mouse blood ([2]; 15 mg): 14.4 ± 3.3% | CD8+ percentage of T lymphocyte in mouse blood ([2]; 15 mg): 7.4 ± 1.9% | CD3+ percentage of T lymphocyte in mouse blood ([2]; 45 mg): 25.8 ± 3.0% | CD4+ percentage of T lymphocyte in mouse blood ([2]; 45 mg): 15.7 ± 2.5% | CD8+ percentage of T lymphocyte in mouse blood ([2]; 45 mg): 7.6 ± 1.8% | percentage of lymphocyte in mouse blood ([2]; result in words): increase

IC50 [3]: 1.99e-07 M
Compound: CS(=O)(=O)NCCNCc1cc(Cl)c(OCc2cccc(-c3ccccc3)c2Br)cc1OCc1cccnc1 [Example 16, N-(2-methanesulfonaminoethyl)-4-(2-bromo-3-phenylbenzyloxy)-5-chloro-2-(pyridin-3-yl-methyleneoxy)benzylamine]

IC50 [3]: 4.29e-08 M
Compound: O=C(O)[C@@H](CO)NCc1cc(Cl)c(OCc2cccc(-c3ccccc3)c2Br)cc1OCc1cccnc1 [Example 8, (R)—N-(4-(2-bromo-3-phenylbenzyloxy)-5-chloro-2-(pyridin-3-yl-methyleneoxy)benzyl) serine]

IC50 [3]: 2e-07 M
Compound: CC(C)C(NCc1cc(Cl)c(OCc2cccc(-c3ccccc3)c2Br)cc1OCc1cccnc1)C(=O)O (stereo not drawn) [Example 13, N-(4-(2-bromo-3-phenylbenzyloxy)-5-chloro-2-(pyridin-3-yl-methyleneoxy)benzyl) valine]

IC50 [3]: 8.23e-08 M
Compound: CC(C)OC(=O)[C@H](CO)NCc1cc(Cl)c(OCc2cccc(-c3ccccc3)c2Br)cc1OCc1cccnc1 [Example 6, (S)-isopropyl N-(4-(2-bromo-3-phenylbenzyloxy)-5-chloro-2-(pyridin-3-yl-methyleneoxy)benzyl) serinate dihydrochloride]

IC50 [3]: 4.99e-06 M
Compound: CC[C@H](C)[C@H](NCc1cc(Cl)c(OCc2cccc(-c3ccccc3)c2Br)cc1OCc1cccnc1)C(=O)O [Example 22, N-(4-(2-bromo-3-phenylbenzyloxy)-5-chloro-2-(pyridin-3-yl-methyleneoxy)benzyl) isoleucine]

Compound: O=P1(N(CCCl)CCCl)NCCCO1 (stereo not drawn) [Cyclophosphamide (CTX), Cyclophosphamide, reference compound]
Tumorweight(g) X ± SD ([1]; 80 mg/kg): 1.55 ± 0.59 g | Body weight (g) Mean ± SD Begin ([1]; 80 mg/kg): 20.3 ± 0.8 g | Body weight (g) Mean ± SD End ([1]; 80 mg/kg): 23.3 ± 1.4 g | T/C % (relative tumor proliferation rate) ([1]; 80 mg/kg): 60.00% | TGI % (tumor growth inhibition rate) ([1]; 80 mg/kg): 40.00% | CD3+ (%) T lymphocytes in spleen [1, 4]: 78.6 ± 2.5% | CD4+ (%) T lymphocytes in spleen [1, 4]: 24.6 ± 2.6% | CD8+ (%) T lymphocytes in spleen [1, 4]: 15.2 ± 3.1% | CD3+ (%) tumor-infiltrating T lymphocytes ([1]; CTX group, dose not given): 3.6 ± 1.5% | CD4+ (%) tumor-infiltrating T lymphocytes ([1]; CTX group, dose not given): 1.7 ± 0.4% | CD8+ (%) tumor-infiltrating T lymphocytes ([1]; CTX group, dose not given): 1.4 ± 0.3% | T/C % (relative tumor proliferation rate) (mouse breast cancer EMT6; 60 mg/kg): 14.1% | TGI % (tumor growth inhibition rate) (mouse breast cancer EMT6; 60 mg/kg): 85.9% | Tumorweight(g) X ± SD (mouse breast cancer EMT6; 60 mg/kg): 0.25 ± 0.17 g | Body weight (g) Mean ± SD Begin (mouse breast cancer EMT6; 60 mg/kg, begin): 18.4 ± 0.3 g | Body weight (g) Mean ± SD End (mouse breast cancer EMT6; 60 mg/kg, end): 19.4 ± 0.7 g | tumor growth inhibition rate (mouse breast cancer EMT6; Cyclophosphamide alone vs combination, dose not restated): 85% | T/C % (relative tumor proliferation rate) (mouse colon cancer MC38): 5.4% | TGI % (tumor growth inhibition rate) (mouse colon cancer MC38): 94.6% | Tumor weight(g) Mean ± SD (mouse colon cancer MC38): 0.17 ± 0.05 g | Body weight (g) Mean ± SD Begin (mouse colon cancer MC38; begin): 17.9 ± 0.6 g | Body weight (g) Mean ± SD End (mouse colon cancer MC38; end): 19.1 ± 0.8 g | Body weight (g) Mean ± SD Begin ([2]; 80 mg/kg): 20.1 ± 0.8 g | Body weight (g) Mean ± SD End ([2]; 80 mg/kg): 21.4 ± 0.5 g | Tumor number X ± SD ([2]; 80 mg/kg): 18 ± 14 | T/C % (relative tumor proliferation rate) ([2]; 80 mg/kg): 85.7% | TGI % (tumor growth inhibition rate) ([2]; 80 mg/kg): 14.3% | CD3+ percentage of T lymphocyte in mouse blood ([2]; CTX group, dose not given): 22.4 ± 5.5% | CD4+ percentage of T lymphocyte in mouse blood ([2]; CTX group, dose not given): 13.0 ± 2.4% | CD8+ percentage of T lymphocyte in mouse blood ([2]; CTX group, dose not given): 7.5 ± 2.4%

IC50 [3]: 6.1e-08 M
Compound: CC(C)C[C@H](NCc1cc(Cl)c(OCc2cccc(-c3ccccc3)c2Br)cc1OCc1cccnc1)C(=O)O [Example 20, N-(4-(2-bromo-3-phenylbenzyloxy)-5-chloro-2-(pyridin-3-yl-methyleneoxy)benzyl) leucine]

IC50 [3]: 1.48e-07 M
Compound: CCOC(=O)C(CO)NCc1cc(Cl)c(OCc2cccc(-c3ccccc3)c2Br)cc1OCc1cccnc1 (stereo not drawn) [Example 1, Ethyl N-(4-(2-bromo-3-phenylbenzyloxy)-5-chloro-2-(pyridin-3-yl-methyleneoxy)benzyl) serinate dihydrochloride]

IC50 [3]: 2.69e-05 M
Compound: C/C(=C\C#N)NCc1cc(Cl)c(OCc2cccc(-c3ccccc3)c2Br)cc1OCc1cccnc1 [Example 14, (E)-3-(4-(2-bromo-3-phenylbenzyloxy)-5-chloro-2-(pyridin-3-yl-methyleneoxy)benzylamino) but-2-enenitrile]

IC50 [3]: 5.51e-07 M
Compound: CC(=O)NCCNCc1cc(Cl)c(OCc2cccc(-c3ccccc3)c2Br)cc1OCc1cccnc1 [Example 17, N-(2-acetylaminoethyl)-4-(2-bromo-3-phenylbenzyloxy)-5-chloro-2-(pyridin-3-yl-methyleneoxy) benzylamine]

IC50 [3]: 4.06e-07 M
Compound: O=C(O)[C@H](Cc1ccc(O)cc1)NCc1cc(Cl)c(OCc2cccc(-c3ccccc3)c2Br)cc1OCc1cccnc1 [Example 21, N-(4-(2-bromo-3-phenylbenzyloxy)-5-chloro-2-(pyridin-3-yl-methyleneoxy)benzyl) tyrosine]

IC50 [3]: 4.11e-08 M
Compound: O=C(O)CNCc1cc(Cl)c(OCc2cccc(-c3ccccc3)c2Br)cc1OCc1cccnc1 [Example 12, N-(4-(2-bromo-3-phenylbenzyloxy)-5-chloro-2-(pyridin-3-yl-methyleneoxy)benzyl) glycine]
